In patent US20230158153A1, “PI3 KINASE INHIBITORS AND USES THEREOF” (Purdue Research Foundation, priority 2020, published 2023):

Assays:
IPF fibroblasts = assay: Molecular crowding assay for collagen in IPF fibroblasts; assay type: cell-based, human; details: 100 nM, 2 h, then inhibitor-free media with TGFβ1
Procedure: FIG. 7E and FIG. 7F show assay of collagen biosynthesis (green channel) using a molecular crowding assay (0.1% DMSO vehicle was constant for all experimental conditions). IPF fibroblasts were treated with 100 nM omipalisib, PI3Ki1 or FAPL-PI3Ki1for 2 hours, after which the media were removed and the fibroblasts were further stimulated for 48 h with media containing TGFβ1 (10 ng/mL). Cell counts were obtained from DAPI counterstaining (blue channel). Data were analyzed using one-way ANOVA, followed by post-hoc Tukey test (n=3; *p.-(0.05).
Next, the FAP-targeted PI-3 kinase inhibitors were tested to determine if they might suppress collagen formation by human IPF fibroblasts. For this purpose, TGFβ1-stimulated IPF lung fibroblasts were stimulated for 2 h with omipalisib, PI3Ki1, or FAPL-PI3Ki1, followed by replacement of the inhibitor-containing media with inhibitor-free growth media and continued incubation for 46 h. […] Importantly, this concurrent suppression of both mTOR and PI3K activity should be very beneficial to the desired therapy, since collagen synthesis associated with pathogenic fibrosis can be induced by both pathways.
Confluent IPF fibroblasts (4000 cells/well) were cultured in 96-well plates in DMEM containing 0.4% fetal calf serum, ascorbic acid (100 μM), and mixed Ficoll 70 and Ficoll 400 as molecular crowding agents. […]

PI3K [1] = assay: Western blot of Akt phosphorylation in TGFβ1-stimulated human IPF fibroblasts; assay type: cell-based; details: 3, 9, 27 or 81 min incubation
Procedure: After replacing the medium with inhibitor-free medium, the cells were cultured for an additional 22 hours, lysed with phosphatase inhibitor containing cell lysis solution, and analyzed for the indicated proteins by Western blotting (n=3).
After an additional 24-hour incubation, cells were lysed and the indicated proteins were analyzed by Western blotting (n=3).
Random/zed shRNA (shCTL) served as a control (n=2).
FIGS. 8A-8B are representative Western blots showing that FAP-targeted PI-3 Kinase inhibitor (FAPL-PI3Ki1) suppresses phosphorylation of Akt in IPF fibroblasts.
Firstly, primary lung fibroblasts from an IPF patient were stimulated for 24 h with TGFβ1 (to activate them to a FAP-expressing state) and then incubated for 2 h with increasing concentrations of FAPL-PI3Ki1, in the presence or absence of 100-fold excess FAPL to block unoccupied FAP sites.
Secondly, IPF lung fibroblasts were stimulated with TGFβ1 and then incubated for different durations with either FAPL-targeted or nontargeted PI3Ki1, followed by replacement of the culture media with inhibitor-free media (FIG. 7B and FIGS. 8A-8B). The anticipation was that FAP-targeted PI3Ki1 would be retained by FAP on FAP-expressing cells during short incubation times, whereas nontargeted PI3Ki1would not be captured by FAP and would subsequently be washed away when the media was changed. […]

HLF = HLF contraction of a collagen gel; assay type: cell-based, human; details: 100 nM
Procedure: Data were analyzed using one-way ANOVA, followed by post-hoc Tukey test (n=3; *p<0.01).
(§1) To determine whether the nontargeted version of PI3Ki1 might enter human lung fibroblasts and inhibit PI3K activity, HLF-FAP cells were incubated for 24 h with either omipalisib or PI3Ki1 and then the impact on TGFβ1 stimulation, including phosphorylation of Akt, collagen synthesis, contraction of a collagen gel, and apoptosis of myofibroblasts were examined. […] Moreover, nontargeted PI3Ki1suppressed collagen synthesis with better potency than omipalisib, displaying an IC50˜10 nM (FIG. 4C).

[2] = system: TGFβ1-stimulated HLF cells; assay: Collagen synthesis (Col.1/GAPDH) in TGFβ1-stimulated HLF cells; assay type: cell-based; details: Homo sapiens, TGFβ1 10 ng/mL, 24 h, read-out: IC50 of suppression of collagen synthesis
Procedure: (§2) Lysates were collected and analyzed for the indicated proteins by Western blotting, wherein pAkt (S473) is phosphorylated protein kinase B, Akt is protein kinase B, Col.1 is collagen 1, αSMA is α-smooth muscle actin, pSMAD2 is phosphor-SMAD2 kinase, SMAD2 is mothers against decapentaplegic homolog 2, and GAPDH is glyceraldehyde 3-phosphate dehydrogenase.
as §1
(§3) Serum starved confluent HLF cells were co-incubated in medium containing 10 ng/ml TGFβ1 with or without the indicated concentrations of PI3K inhibitors for 24 hours. Cells were harvested and lysed for Western blot analysis. Following sodium dodecyl sulphate polyacrylamide gel electrophoresis and blocking, membranes were incubated with antibodies to detect pSMAD2 Ser465/467 (#3101, Cell Signalling Technology), or pAkt Ser473 (#4060, Cell signalling Technology), and signals were visualized with ECL Western Blot Detection Reagents (GE Healthcare). […]

HLF cells = assay: Caspase 3 and 7 activities in HLF cells (drug-induced apoptosis); assay type: cell-based
Procedure: The experiments in panels A-E have been reproduced three times, each with three independent samples, n=3).
as §1

PI3K [3] = assay: Western blot of Akt phosphorylation in TGFβ1-stimulated HLF cells; assay type: cell-based, human; design: inhibition of Akt phosphorylation on serine 473: dose or concentration left out as unconfirmed
Procedure: as §2, §1, §3

Compound | biosynthesis of collagen (IPF fibroblasts) | pAkt after short incubation and replacement with inhibitor-free media (PI3K [1]) | inhibition of TGFβ1 stimulated fibroblast contraction of a collagen gel (HLF) | IC50 [2] | caspase activity (HLF cells; concentrations below 100 nM) | fibroblast apoptosis (caspase 3 and 7 activation) (HLF cells; increasing concentrations) | inhibition of Akt phosphorylation on serine 473 (PI3K [3]) | IC50 (PI3K [3]; Homo sapiens, HLF, TGFβ1 10 ng/mL, 24 h, read-out: IC50 of inhibition of phosphorylation of Akt)
COc1ncc(-c2ccc3nccc(-c4ccnnc4)c3c2)cc1NS(=O)(=O)c1ccc(F)cc1F [omipalisib, reference compound] | only moderately inhibited |  |  |  |  |  |  | 
COc1ncc(-c2ccc3nccc(-c4ccc(CO)nc4)c3c2)cc1NS(=O)(=O)c1ccc(F)cc1F [PI3Ki1] | only moderately inhibited | no diminution in pAkt expression | reduce TGFβ1 induced collagen remodeling | ~10 nM | weak induction of caspase activity | only promoted fibroblast cell death at concentrations much higher than those required to prevent collagen synthesis | nearly complete inhibition | ~1 nM
